Among the data in patent US20090286804A1, “METABOLITES OF 1-[6-(1-ETHYL-1-HYDROXY-PROPYL)-PYRIDIN-3-YL]-3-[2-(4-METHYL-PIPERAZIN-1-YL)-BENZYL]-PYRROLIDIN-2-ONE AS SERATONIN RECEPTOR ANTAGONISTS” (Pfizer Inc, priority 2005, published 2009) are IC50 values, retold here.

Each structure is given as a SMILES string.

This assay addresses serotonin-1 receptors (5-HT1A and/or 5-HT1B). Nature of the assay: radioligand binding assay for serotonin-1 receptor affinity (IC50). The settings on record: receptor subtype not given. An excerpt: The affinities of the compounds of this invention for the various serotonin-1 receptors can be determined using standard radioligand binding assays as described in the literature. The 5-HT1A affinity can be measured using the procedure of Hoyer et al. (Brain Res., 376, 85 (1986)). The 5-HT1B affinity can be measured using the procedure of Heuring and Peroutka (J. Neurosci., 7, 894 (1987)).
The in vitro activity of the compounds of the present invention at the 5-HT1B binding site can be determined according to the following procedure. Bovine caudate tissue is homogenized and suspended in 20 volumes of a buffer containing 50 mM TRIS•hydrochloride (tris[hydroxymethyl]aminomethane hydrochloride) at a pH of 7.7. The homogenate is then centrifuged at 45,000 G for 10 minutes. The supernatant is then discarded and the resulting pellet resuspended in approximately 20 volumes of 50 mM TRIS•hydrochloride buffer at pH 7.7. […]
The inhibitor, control or vehicle is then incubated according to the following procedure. […] The percent inhibition can be calculated for each dose of the compound. An IC50 value can then be calculated from the percent inhibition values.
The activity of the compounds of the present invention for 5-HT1A binding ability can be determined according to the following procedure. […] The tissue is stored at −70° C. until ready for an experiment. […]

`CCC(O)(c1ccc(N2CC[C@@H](Cc3ccccc3N3CCN(C)CC3)C2=O)cn1)C(C)O` (stereo in doubt) [Formula I, 1-[6-(1-ethyl-1,2-dihydroxy-propyl)-pyridin-3-yl]-3-[2-(4-methyl-piperazin-1-yl)-benzyl]-pyrrolidin-2-one]: the IC50 is at most 100 nM.

As usually defined, the IC50 is the concentration that inhibits the measured activity by half. A higher IC50 goes with weaker potency.
